In publication PMC11831560, “Development of the Pyrido[2,3-d]pyrimidin-7(8H)-one Scaffold toward Potent and Selective NUAK1 Inhibitors” (ACS Medicinal Chemistry Letters, 2025):

Assays:
Assay in all cases: Kinase panel radiometric filter binding (33P-ATP)
Format in all cases: biochemical
Design in all cases: dose or concentration left out as unconfirmed
[1] = target: MAPKAP-K2 (Homo sapiens, UniProt P49137)
How it was run: (§1)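 140-kinase general panel; radiometric filter binding, 33P-ATP; test compound 1 µM; % activity remaining ± s.d.; pIC50 determined only if <20% activity.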

[2] = target: CK1δ (Homo sapiens, UniProt P48730)
How it was run: as §1

[3] = target: CSK (Homo sapiens, UniProt P41240)
How it was run: as §1

[4] = target: PDK1 (Homo sapiens, UniProt O15530)
How it was run: as §1

[5] = target: DAPK1 (Homo sapiens, UniProt P53355)
How it was run: as §1

[6] = target: SIK3 (Homo sapiens, UniProt Q9Y2K2)
How it was run: as §1

[7] = target: PIM2 (Homo sapiens, UniProt Q9P1W9)
How it was run: as §1

[8] = target: PKBb (Homo sapiens, UniProt P31751)
How it was run: as §1

[9] = target: ZAP70 (Homo sapiens, UniProt P43403)
How it was run: as §1

[10] = target: p38d MAPK (Homo sapiens, UniProt O15264)
How it was run: as §1

[11] = target: p38a MAPK (Homo sapiens, UniProt Q16539)
How it was run: as §1

[12] = target: MAPKAP-K3 (Homo sapiens, UniProt Q16644)
How it was run: as §1

[13] = target: IRAK4 (Homo sapiens, UniProt Q9NWZ3)
How it was run: as §1

[14] = target: PIM3 (Homo sapiens, UniProt Q86V86)
How it was run: as §1

[15] = target: T1, MARK3 (Homo sapiens, UniProt P27448)
T1 construct: purchased MRC PPU
How it was run: as §1

[16] = target: DDR2 (Homo sapiens, UniProt Q16832)
How it was run: as §1

[17] = target: SmMLCK (Homo sapiens, UniProt Q15746)
How it was run: as §1

[18] = target: GSK3b (Homo sapiens, UniProt P49841)
How it was run: as §1

[19] = target: RIPK2 (Homo sapiens, UniProt O43353)
How it was run: as §1

[20] = target: TIE2 (Homo sapiens, UniProt Q02763)
How it was run: as §1

[21] = target: TSSK1 (Homo sapiens, UniProt Q9BXA7)
How it was run: as §1

[22] = system: PINK
How it was run: as §1

[23] = target: MLK3 (Homo sapiens, UniProt Q16584)
How it was run: as §1

[24] = target: CHK2 (Homo sapiens, UniProt O96017)
How it was run: as §1

[25] = target: Aurora B (Homo sapiens, UniProt Q96GD4)
How it was run: as §1

[26] = target: HIPK3 (Homo sapiens, UniProt Q9H422)
How it was run: as §1

[27] = target: RSK1 (Homo sapiens, UniProt Q15418)
How it was run: as §1

[28] = target: DYRK1A (Homo sapiens, UniProt Q13627)
How it was run: as §1

[29] = target: AMPK (hum) (Homo sapiens, UniProt Q13131)
How it was run: as §1

[30] = target: EIF2AK3 (Homo sapiens, UniProt Q9NZJ5)
How it was run: as §1

[31] = target: Src (Homo sapiens, UniProt P12931)
How it was run: as §1

[32] = target: EPH-B4 (Homo sapiens, UniProt P54760)
How it was run: as §1

[33] = target: WNK1 (Homo sapiens, UniProt Q9H4A3)
How it was run: as §1

[34] = target: CK1γ2 (Homo sapiens, UniProt P78368)
How it was run: as §1

[35] = target: PAK4 (Homo sapiens, UniProt O96013)
How it was run: as §1

Sequence of PAK4 (O96013 whole entry): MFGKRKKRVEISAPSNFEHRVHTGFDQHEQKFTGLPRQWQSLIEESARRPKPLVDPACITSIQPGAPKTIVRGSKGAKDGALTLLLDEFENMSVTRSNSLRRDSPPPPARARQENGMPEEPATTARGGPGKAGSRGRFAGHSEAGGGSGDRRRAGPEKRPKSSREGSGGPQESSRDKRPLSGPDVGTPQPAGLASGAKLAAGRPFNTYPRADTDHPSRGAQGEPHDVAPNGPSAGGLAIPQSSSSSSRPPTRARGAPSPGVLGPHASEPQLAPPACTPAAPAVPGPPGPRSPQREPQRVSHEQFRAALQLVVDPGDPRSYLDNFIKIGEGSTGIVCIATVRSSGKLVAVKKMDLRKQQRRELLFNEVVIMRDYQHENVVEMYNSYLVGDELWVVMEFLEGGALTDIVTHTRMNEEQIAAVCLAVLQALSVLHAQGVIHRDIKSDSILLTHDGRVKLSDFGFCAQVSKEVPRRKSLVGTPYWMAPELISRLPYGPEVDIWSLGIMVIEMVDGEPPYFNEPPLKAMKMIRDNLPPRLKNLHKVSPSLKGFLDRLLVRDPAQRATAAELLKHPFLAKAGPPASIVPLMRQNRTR
Sequence of CK1δ (P48730 whole entry): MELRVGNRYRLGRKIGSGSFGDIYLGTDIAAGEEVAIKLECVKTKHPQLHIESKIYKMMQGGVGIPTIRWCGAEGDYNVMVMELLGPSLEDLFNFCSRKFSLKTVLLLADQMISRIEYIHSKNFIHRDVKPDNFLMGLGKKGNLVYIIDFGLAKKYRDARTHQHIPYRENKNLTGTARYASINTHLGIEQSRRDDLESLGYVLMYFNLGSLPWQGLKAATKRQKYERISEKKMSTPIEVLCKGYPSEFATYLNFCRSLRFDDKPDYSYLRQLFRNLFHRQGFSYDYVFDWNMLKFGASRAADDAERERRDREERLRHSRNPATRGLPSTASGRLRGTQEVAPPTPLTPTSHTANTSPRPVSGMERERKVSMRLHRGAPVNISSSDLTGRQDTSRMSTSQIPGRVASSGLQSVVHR
Sequence of PIM2 (Q9P1W9 whole entry): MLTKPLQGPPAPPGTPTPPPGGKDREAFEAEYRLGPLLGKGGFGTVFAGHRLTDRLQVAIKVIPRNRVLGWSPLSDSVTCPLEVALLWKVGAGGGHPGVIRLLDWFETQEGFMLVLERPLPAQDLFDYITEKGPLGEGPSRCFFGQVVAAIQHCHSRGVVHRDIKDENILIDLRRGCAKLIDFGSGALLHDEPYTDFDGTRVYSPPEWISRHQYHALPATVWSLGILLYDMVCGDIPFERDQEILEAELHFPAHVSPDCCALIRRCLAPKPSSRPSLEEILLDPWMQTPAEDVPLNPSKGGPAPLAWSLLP
Sequence of SmMLCK (Q15746 923-1914): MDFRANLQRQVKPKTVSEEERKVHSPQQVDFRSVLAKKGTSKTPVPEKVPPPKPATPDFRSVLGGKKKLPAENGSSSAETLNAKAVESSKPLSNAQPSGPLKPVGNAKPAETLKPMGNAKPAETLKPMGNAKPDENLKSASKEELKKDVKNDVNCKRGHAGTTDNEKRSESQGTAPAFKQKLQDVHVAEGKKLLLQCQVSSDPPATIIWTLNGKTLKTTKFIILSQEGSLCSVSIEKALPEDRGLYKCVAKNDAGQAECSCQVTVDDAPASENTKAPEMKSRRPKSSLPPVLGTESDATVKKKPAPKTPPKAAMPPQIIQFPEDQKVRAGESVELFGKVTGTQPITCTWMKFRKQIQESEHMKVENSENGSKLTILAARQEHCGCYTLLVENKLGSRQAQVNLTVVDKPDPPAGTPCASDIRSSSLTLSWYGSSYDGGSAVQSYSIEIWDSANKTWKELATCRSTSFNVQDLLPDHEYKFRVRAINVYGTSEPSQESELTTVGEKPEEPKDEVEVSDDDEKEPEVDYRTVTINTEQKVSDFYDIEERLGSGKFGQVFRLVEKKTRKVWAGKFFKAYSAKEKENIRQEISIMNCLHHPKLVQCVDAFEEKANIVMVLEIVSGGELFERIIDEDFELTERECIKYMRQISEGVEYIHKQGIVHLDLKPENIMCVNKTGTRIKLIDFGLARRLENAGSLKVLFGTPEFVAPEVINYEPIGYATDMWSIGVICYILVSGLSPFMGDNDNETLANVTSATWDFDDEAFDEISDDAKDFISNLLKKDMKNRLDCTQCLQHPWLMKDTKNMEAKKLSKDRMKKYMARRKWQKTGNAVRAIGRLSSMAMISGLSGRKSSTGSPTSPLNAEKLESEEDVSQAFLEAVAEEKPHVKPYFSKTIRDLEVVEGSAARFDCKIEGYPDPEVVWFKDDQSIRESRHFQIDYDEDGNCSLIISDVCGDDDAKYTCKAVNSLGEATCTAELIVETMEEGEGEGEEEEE
Sequence of p38a MAPK (Q16539 whole entry): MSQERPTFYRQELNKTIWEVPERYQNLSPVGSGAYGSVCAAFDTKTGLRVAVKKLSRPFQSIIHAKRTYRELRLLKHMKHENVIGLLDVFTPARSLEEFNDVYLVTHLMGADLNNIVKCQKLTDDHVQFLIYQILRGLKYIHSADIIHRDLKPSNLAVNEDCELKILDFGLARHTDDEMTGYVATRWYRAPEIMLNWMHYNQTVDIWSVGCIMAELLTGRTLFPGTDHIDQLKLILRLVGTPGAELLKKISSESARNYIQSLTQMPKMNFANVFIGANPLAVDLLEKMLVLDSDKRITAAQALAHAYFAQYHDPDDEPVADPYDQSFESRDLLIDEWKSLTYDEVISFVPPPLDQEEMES
Sequence of MAPKAP-K2 (P49137 whole entry): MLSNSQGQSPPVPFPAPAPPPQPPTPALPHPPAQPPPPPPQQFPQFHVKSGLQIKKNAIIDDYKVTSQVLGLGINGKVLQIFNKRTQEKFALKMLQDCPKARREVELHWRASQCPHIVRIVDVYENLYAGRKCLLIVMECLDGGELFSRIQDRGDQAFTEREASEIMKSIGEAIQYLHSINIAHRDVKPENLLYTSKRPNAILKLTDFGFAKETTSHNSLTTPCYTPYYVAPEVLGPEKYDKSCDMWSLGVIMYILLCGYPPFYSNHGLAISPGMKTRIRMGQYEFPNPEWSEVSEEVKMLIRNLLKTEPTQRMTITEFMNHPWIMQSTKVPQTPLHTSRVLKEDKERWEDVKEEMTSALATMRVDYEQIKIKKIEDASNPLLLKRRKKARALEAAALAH
Sequence of CK1γ2 (P78368 whole entry): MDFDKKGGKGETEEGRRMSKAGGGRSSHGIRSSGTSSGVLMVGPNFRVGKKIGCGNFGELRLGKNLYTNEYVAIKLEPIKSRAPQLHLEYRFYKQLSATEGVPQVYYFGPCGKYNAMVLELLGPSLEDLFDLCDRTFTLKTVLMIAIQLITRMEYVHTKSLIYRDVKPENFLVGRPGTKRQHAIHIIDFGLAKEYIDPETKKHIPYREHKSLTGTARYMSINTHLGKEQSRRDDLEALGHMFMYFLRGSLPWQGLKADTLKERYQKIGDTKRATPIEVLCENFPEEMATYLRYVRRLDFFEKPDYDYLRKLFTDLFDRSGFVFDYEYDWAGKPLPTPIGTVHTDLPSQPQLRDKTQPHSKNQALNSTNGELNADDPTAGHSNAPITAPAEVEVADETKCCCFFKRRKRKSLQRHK
Sequence of CHK2 (O96017 whole entry): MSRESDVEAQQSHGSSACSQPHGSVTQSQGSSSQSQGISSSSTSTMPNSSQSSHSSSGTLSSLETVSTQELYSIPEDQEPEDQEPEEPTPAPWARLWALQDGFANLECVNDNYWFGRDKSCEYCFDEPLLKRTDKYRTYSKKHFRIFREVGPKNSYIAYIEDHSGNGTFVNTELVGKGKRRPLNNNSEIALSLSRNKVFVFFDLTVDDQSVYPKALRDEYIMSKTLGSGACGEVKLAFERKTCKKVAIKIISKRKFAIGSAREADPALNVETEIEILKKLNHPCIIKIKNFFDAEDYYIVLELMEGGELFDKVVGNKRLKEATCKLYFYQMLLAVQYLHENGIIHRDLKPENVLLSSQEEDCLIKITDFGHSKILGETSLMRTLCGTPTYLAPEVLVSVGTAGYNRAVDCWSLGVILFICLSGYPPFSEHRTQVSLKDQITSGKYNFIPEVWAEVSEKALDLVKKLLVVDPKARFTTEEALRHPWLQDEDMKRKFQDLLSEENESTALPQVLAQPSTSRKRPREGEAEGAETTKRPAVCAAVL
Sequence of ZAP70 (P43403 whole entry): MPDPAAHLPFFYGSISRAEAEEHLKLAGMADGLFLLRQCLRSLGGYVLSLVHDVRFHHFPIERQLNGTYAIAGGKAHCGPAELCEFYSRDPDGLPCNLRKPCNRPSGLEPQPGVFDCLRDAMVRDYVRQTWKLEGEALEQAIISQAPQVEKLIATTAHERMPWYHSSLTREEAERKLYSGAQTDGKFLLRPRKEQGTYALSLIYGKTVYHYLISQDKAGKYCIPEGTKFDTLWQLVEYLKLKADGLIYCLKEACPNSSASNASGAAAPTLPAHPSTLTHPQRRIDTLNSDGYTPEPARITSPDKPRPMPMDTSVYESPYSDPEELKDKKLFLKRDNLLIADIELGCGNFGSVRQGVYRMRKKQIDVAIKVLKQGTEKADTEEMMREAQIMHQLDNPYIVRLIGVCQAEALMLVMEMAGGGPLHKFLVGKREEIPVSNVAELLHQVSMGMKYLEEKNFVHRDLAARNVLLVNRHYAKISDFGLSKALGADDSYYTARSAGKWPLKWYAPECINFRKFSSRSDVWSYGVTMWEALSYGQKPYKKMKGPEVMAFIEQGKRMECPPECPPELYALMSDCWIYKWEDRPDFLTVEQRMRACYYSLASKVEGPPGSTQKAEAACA

Question: With `CN1C2CC1CN(c1ccc(Nc3ncc4ccn(CC5CCOCC5)c4n3)cc1)C2` [Compound 24] as the compound, how does the “% activity remaining” value [1] read?
Answer: The value was 95%.

Question: What about the “% activity remaining” value [2] of the same compound?
Answer: The value was 93%.

Question: What about the “% activity remaining” value [3] of the same compound?
Answer: Its value is 97%.

Question: What about the “% activity remaining” value [4] of the same compound?
Answer: The value was 95%.

Question: And the “% activity remaining” value [5]?
Answer: Its value is 125%.

Question: What about the “% activity remaining” value [6] of the same compound?
Answer: Its value is 74%.

Question: What about the “% activity remaining” value [7] of the same compound?
Answer: The value was 111%.

Question: What about the “% activity remaining” value [8] of the same compound?
Answer: Its value is 93%.

Question: And the “% activity remaining” value [9]?
Answer: Its value is 95%.

Question: What about the “% activity remaining” value [10] of the same compound?
Answer: Its value is 110%.

Question: What about the “% activity remaining” value [11] of the same compound?
Answer: Its value is 93%.

Question: And the “% activity remaining” value [12]?
Answer: Its value is 109%.

Question: And the “% activity remaining” value [13]?
Answer: The value was 71%.

Question: What about the “% activity remaining” value [14] of the same compound?
Answer: The value was 56%.

Question: And the “% activity remaining” value [15]?
Answer: The value was 104%.

Question: And the “% activity remaining” value [16]?
Answer: Its value is 82%.

Question: What about the “% activity remaining” value [17] of the same compound?
Answer: Its value is 102%.

Question: And the “% activity remaining” value [18]?
Answer: The value was 69%.

Question: And the “% activity remaining” value [19]?
Answer: Its value is 73%.

Question: And the “% activity remaining” value [20]?
Answer: Its value is 62%.

Question: And the “% activity remaining” value [21]?
Answer: The value was 77%.

Question: And the “% activity remaining” value [22]?
Answer: The value was 99%.

Question: And the “% activity remaining” value [23]?
Answer: The value was 91%.

Question: What about the “% activity remaining” value [24] of the same compound?
Answer: Its value is 98%.

Question: What about the “% activity remaining” value [25] of the same compound?
Answer: The value was 64%.

Question: What about the “% activity remaining” value [26] of the same compound?
Answer: Its value is 73%.

Question: What about the “% activity remaining” value [27] of the same compound?
Answer: The value was 74%.

Question: What about the “% activity remaining” value [28] of the same compound?
Answer: The value was 141%.

Question: What about the “% activity remaining” value [29] of the same compound?
Answer: Its value is 81%.

Question: What about the “% activity remaining” value [30] of the same compound?
Answer: The value was 86%.

Question: And the “% activity remaining” value [31]?
Answer: Its value is 84%.

Question: What about the “% activity remaining” value [32] of the same compound?
Answer: Its value is 86%.

Question: And the “% activity remaining” value [33]?
Answer: Its value is 84%.

Question: What about the “% activity remaining” value [34] of the same compound?
Answer: Its value is 107%.

Question: What about the “% activity remaining” value [35] of the same compound?
Answer: The value was 89%.

Question: With `Cc1cc(=O)n(C2CCCC2)c2nc(Nc3ccc(N4CC5CC(C4)N5C)cc3)ncc12` [Compound 9] as the compound, how does the “% activity remaining” value [1] read?
Answer: The value was 110%.

Question: And the “% activity remaining” value [2]?
Answer: Its value is 66%.

Question: What about the “% activity remaining” value [3] of the same compound?
Answer: The value was 104%.

Question: And the “% activity remaining” value [4]?
Answer: The value was 90%.

Question: And the “% activity remaining” value [5]?
Answer: Its value is 60%.

Question: And the “% activity remaining” value [6]?
Answer: Its value is 85%.

Question: And the “% activity remaining” value [7]?
Answer: Its value is 99%.

Question: And the “% activity remaining” value [8]?
Answer: Its value is 99%.

Question: And the “% activity remaining” value [9]?
Answer: Its value is 94%.

Question: And the “% activity remaining” value [10]?
Answer: Its value is 94%.

Question: And the “% activity remaining” value [11]?
Answer: The value was 92%.

Question: What about the “% activity remaining” value [12] of the same compound?
Answer: Its value is 84%.

Question: And the “% activity remaining” value [13]?
Answer: Its value is 100%.

Question: And the “% activity remaining” value [14]?
Answer: The value was 80%.

Question: What about the “% activity remaining” value [15] of the same compound?
Answer: The value was 35%.

Question: And the “% activity remaining” value [16]?
Answer: Its value is 39%.

Question: What about the “% activity remaining” value [17] of the same compound?
Answer: Its value is 61%.

Question: And the “% activity remaining” value [18]?
Answer: The value was 101%.

Question: What about the “% activity remaining” value [19] of the same compound?
Answer: The value was 78%.

Question: What about the “% activity remaining” value [20] of the same compound?
Answer: The value was 115%.

Question: What about the “% activity remaining” value [21] of the same compound?
Answer: Its value is 56%.

Question: What about the “% activity remaining” value [22] of the same compound?
Answer: The value was 96%.

Question: What about the “% activity remaining” value [23] of the same compound?
Answer: The value was 43%.

Question: What about the “% activity remaining” value [24] of the same compound?
Answer: Its value is 72%.

Question: And the “% activity remaining” value [25]?
Answer: The value was 61%.

Question: And the “% activity remaining” value [26]?
Answer: Its value is 112%.

Question: What about the “% activity remaining” value [27] of the same compound?
Answer: The value was 41%.

Question: And the “% activity remaining” value [28]?
Answer: The value was 78%.

Question: And the “% activity remaining” value [29]?
Answer: Its value is 19%.

Question: What about the “% activity remaining” value [30] of the same compound?
Answer: Its value is 41%.

Question: And the “% activity remaining” value [31]?
Answer: Its value is 53%.

Question: What about the “% activity remaining” value [32] of the same compound?
Answer: Its value is 61%.

Question: And the “% activity remaining” value [33]?
Answer: Its value is 103%.

Question: And the “% activity remaining” value [34]?
Answer: Its value is 34%.

Question: What about the “% activity remaining” value [35] of the same compound?
Answer: Its value is 50%.
